Results: patent publication US6737383B1, “Herbicidal oxadiazolidines” (priority 1999, dated 2004)

Tests used:
cocklebur = assay: Test B pre/postemergence cocklebur; type: in vivo, Xanthium strumarium
In short: (§1)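 Test chemicals in a non-phytotoxic solvent mixture with surfactant were sprayed preemergence onto planted seeds and postemergence onto plants 2 to 18 cm tall (1- to 4-leaf stage). After twelve to sixteen days in a greenhouse, injury was visually rated against untreated controls from 0 (no effect) to 10 (complete control).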

crabgrass = assay: Test B pre/postemergence crabgrass; type: in vivo, Digitaria sanguinalis
In short: as §1

wild oat = assay: Test B pre/postemergence wild oat; type: in vivo, Avena fatua; conditions: for Plant response rating, Wild oats: Rate 250 g/ha
In short: as §1

giant foxtail = assay: Test B pre/postemergence giant foxtail; type: in vivo, Setaria faberii
In short: as §1

pigweed = assay: Test B pre/postemergence pigweed; type: in vivo, Amaranthus retroflexus
In short: as §1

velvetleaf = assay: Test B pre/postemergence velvetleaf; type: in vivo, Abutilon theophrasti; conditions: for Plant response rating, Velvetleaf: Rate 250 g/ha
In short: as §1

corn = assay: Test B pre/postemergence corn; type: in vivo, Zea mays
In short: as §1

blackgrass = assay: Test B pre/postemergence blackgrass; type: in vivo, Alopecurus myosuroides
In short: as §1

smallflower flatsedge = assay: Test B flood test smallflower flatsedge; type: in vivo, Cyperus difformis
In short: (§2)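 Read-out is a visual response score from 0 (no effect) to 10 (complete control), assigned by comparison with untreated controls. Treatment was applied at the 2-leaf stage, and plants stayed in the greenhouse for twelve to sixteen days before scoring.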

rice = assay: Test B flood test rice; type: in vivo, Oryza sativa
In short: as §2

bedstraw = assay: Test B pre/postemergence bedstraw; type: in vivo, Galium aparine; conditions: Preemergence
In short: as §1

sugar beet = assay: Test B pre/postemergence sugar beet; type: in vivo, Beta vulgaris; conditions: for Plant response rating, Sugarbeets: Rate 250 g/ha
In short: as §1

morningglory = assay: Test B pre/postemergence morningglory; type: in vivo, Ipomoea hederacea
In short: as §1

rape = assay: Test B pre/postemergence rape; type: in vivo, Brassica napus
In short: as §1

surinam grass = assay: Test B pre/postemergence surinam grass; type: in vivo, Brachiaria decumbens
In short: as §1

bamyardgrass = assay: Test B flood test barnyardgrass; type: in vivo, Echinochloa crus-galli
In short: as §2

[1] = Postemergence, Rate 62 g/ha, scale 0 to 10, 0 is no effect, 10 is complete control
[2] = Postemergence, Rate 125 g/ha, scale of 0 to 10 where 0 is no effect and 10 is complete control
[3] = Postemergence, Rate 250 g/ha, scale 0 to 10, 0 no effect, 10 complete control
[4] = Preemergence, Rate 62 g/ha, scale 0 to 10 (0 no effect, 10 complete control)
[5] = Preemergence, Rate 125 g/ha, scale 0 to 10 (0 no effect, 10 complete control)
[6] = Preemergence, Rate 250 g/ha, scale of 0 to 10 where 0 is no effect and 10 is complete control
[7] = Rate 500 g/ha, Postemergence, scale 0 to 10, 0 no effect, 10 complete control
[8] = Preemergence, Rate 500 g/ha, scale 0 (no effect) to 10 (complete control)
[9] = Preemergence, Rate 125 g/ha, 0 is no effect, 10 is complete control
[10] = Preemergence, scale of 0 to 10 where 0 is no effect and 10 is complete control
[11] = Postemergence, scale 0 to 10, 0 is no effect, 10 is complete control
[12] = Postemergence (flood test species), Rate 125 g/ha, scale of 0 to 10 where 0 is no effect and 10 is complete control
[13] = Rate 250 g/ha, Postemergence (flood test), scale 0 to 10, 0 is no effect, 10 is complete control
[14] = Rate 250 g/ha, headed Pre-emergence (flood test species), scale 0 to 10 (0 no effect, 10 complete control)
[15] = Rate 500 g/ha, headed Pre-emergence (flood test species), scale 0 to 10 (0 no effect, 10 complete control)
[16] = Rate 500 g/ha, listed under Postemergence (flood test species), scale 0 to 10, 0 no effect, 10 complete control
[17] = Rate 2000 g/ha, Pre-emergence (as headed), scale 0 to 10
[18] = Rate 1000 g/ha, Pre-emergence (as headed), scale 0 to 10

## CC(C)N(C(=O)n1oc(=O)n(Cc2ccccc2)c1=O)c1ccccc1 [Compound 94]
cocklebur; [1]
  Cocklebur plant response rating: 0
cocklebur; [2]
  Cocklebur plant response rating: 1
cocklebur; [3]
  Cocklebur plant response rating: 1
cocklebur; [4]
  Cocklebur plant response rating: 0
cocklebur; [5]
  Plant response rating, Cocklebur: 0
cocklebur; [6]
  Plant response rating, Cocklebur: 0
cocklebur; [7]
  Cocklebur plant response rating: 3
crabgrass; [1]
  Crabgrass plant response rating: 3
crabgrass; [2]
  Crabgrass plant response rating: 3
crabgrass; [3]
  Crabgrass plant response rating: 8
crabgrass; [4]
  Crabgrass plant response rating: 3
crabgrass; [5]
  Plant response rating, Crabgrass: 3
crabgrass; [6]
  Plant response rating, Crabgrass: 6
crabgrass; [8]
  Crabgrass plant response rating: 10
crabgrass; [7]
  Crabgrass plant response rating: 9
Wild oat; [1]
  Wild oats plant response rating: 0
Wild oat; [2]
  Wild oats plant response rating: 0
Wild oat; [4]
  Wild oats plant response rating: 0
Wild oat; [9]
  Wild oats plant response rating (0 to 10 scale): 3
Wild oat; [10]
  Plant response rating, Wild oats: 4
Wild oat; [8]
  Wild oats plant response rating: 6
Wild oat; [11]
  Plant response rating, Wild oats: 0
Wild oat; [7]
  Wild oats plant response rating: 1
Giant foxtail; [1]
  Giant foxtail plant response rating: 0
Giant foxtail; [2]
  Giant foxtail plant response rating: 0
Giant foxtail; [3]
  Giant foxtail plant response rating: 5
Giant foxtail; [4]
  Giant foxtail plant response rating: 8
Giant foxtail; [5]
  Plant response rating, Giant foxtail: 9
Giant foxtail; [6]
  Plant response rating, Giant foxtail: 9
Giant foxtail; [8]
  Giant foxtail plant response rating: 10
Giant foxtail; [7]
  Giant foxtail plant response rating: 8
pigweed; [1]
  Redroot pigweed plant response rating: 0
pigweed; [2]
  Redroot pigweed plant response rating: 0
pigweed; [4]
  Redroot pigweed plant response rating: 0
pigweed; [5]
  Plant response rating, Redroot pigweed: 0
pigweed; [6]
  Plant response rating, Redroot pigweed: 0
pigweed; [8]
  Redroot pigweed plant response rating: 4
pigweed; Rate 250 g/ha, Postemergence, scale 0 to 10, 0 is no effect, 10 is complete control
  Plant response rating, Redroot pigweed: 2
pigweed; [7]
  Redroot pigweed plant response rating: 4
velvetleaf; [1]
  Velvetleaf plant response rating: 0
velvetleaf; [2]
  Velvetleaf plant response rating: 0
velvetleaf; [4]
  Velvetleaf plant response rating: 0
velvetleaf; [9]
  Velvetleaf plant response rating (0 to 10 scale): 0
velvetleaf; [10]
  Plant response rating, Velvetleaf: 0
velvetleaf; [8]
  Velvetleaf plant response rating: 3
velvetleaf; [11]
  Plant response rating, Velvetleaf: 4
velvetleaf; [7]
  Velvetleaf plant response rating: 6
corn; [1]
  Corn plant response rating: 0
corn; [2]
  Corn plant response rating: 0
corn; [3]
  Corn plant response rating: 0
corn; [4]
  Corn plant response rating: 0
corn; [5]
  Plant response rating, Corn: 2
corn; [6]
  Plant response rating, Corn: 3
corn; [8]
  Corn plant response rating: 6
corn; [7]
  Corn plant response rating: 0
blackgrass; [1]
  Blackgrass plant response rating: 0
blackgrass; [2]
  Blackgrass plant response rating: 0
blackgrass; [3]
  Blackgrass plant response rating: 3
blackgrass; [4]
  Blackgrass plant response rating: 0
blackgrass; [5]
  Plant response rating, Blackgrass: 1
blackgrass; [6]
  Plant response rating, Blackgrass: 8
blackgrass; [8]
  Blackgrass plant response rating: 9
blackgrass; [7]
  Blackgrass plant response rating: 6
Smallflower flatsedge; [12]
  S. Flatsedge plant response rating: 0
Smallflower flatsedge; [1]
  S. Flatsedge plant response rating: 0
Smallflower flatsedge; Pre-emergence, Rate 1000 g/ha, scale 0 to 10 (0 no effect, 10 complete control)
  S. Flatsedge plant response rating: 0
Smallflower flatsedge; [13]
  Plant response rating, S. Flatsedge: 0
Smallflower flatsedge; [14]
  S. Flatsedge plant response rating: 0
Smallflower flatsedge; [15]
  Plant response rating, S. Flatsedge: 0
Smallflower flatsedge; [16]
  S. Flatsedge plant response rating: 9
Smallflower flatsedge; [17]
  S. Flatsedge plant response rating: 8
rice; [12]
  Rice plant response rating: 0
rice; [1]
  Rice plant response rating: 0
rice; [13]
  Plant response rating, Rice: 0
rice; [14]
  Rice plant response rating: 0
rice; [15]
  Plant response rating, Rice: 0
rice; [16]
  Rice plant response rating: 0
rice; [18]
  Rice plant response rating: 0
rice; [17]
  Rice plant response rating: 0
bedstraw; Rate 62 g/ha, scale 0 to 10 (0 no effect, 10 complete control)
  Bedstraw plant response rating: 0
bedstraw; Rate 125 g/ha, scale 0 to 10 (0 no effect, 10 complete control)
  Plant response rating, Bedstraw: 0
bedstraw; Rate 250 g/ha, scale of 0 to 10 where 0 is no effect and 10 is complete control
  Plant response rating, Bedstraw: 0
bedstraw; Rate 500 g/ha, scale 0 (no effect) to 10 (complete control)
  Bedstraw plant response rating: 0
Sugar beet; [1]
  Sugarbeets plant response rating: 2
Sugar beet; [2]
  Sugarbeets plant response rating: 2
Sugar beet; [4]
  Sugarbeets plant response rating: 0
Sugar beet; [9]
  Sugarbeets plant response rating (0 to 10 scale): 0
Sugar beet; [10]
  Plant response rating, Sugarbeets: 0
Sugar beet; [8]
  Sugarbeets plant response rating: 2
Sugar beet; [11]
  Plant response rating, Sugarbeets: 2
Sugar beet; [7]
  Sugarbeets plant response rating: 3
morningglory; [1]
  Morningglory plant response rating: 10
morningglory; [2]
  Morningglory plant response rating: 10
morningglory; [3]
  Morningglory plant response rating: 10
morningglory; [4]
  Morningglory plant response rating: 0
morningglory; [5]
  Plant response rating, Morningglory: 0
morningglory; [6]
  Plant response rating, Morningglory: 0
morningglory; [8]
  Morningglory plant response rating: 0
morningglory; [7]
  Morningglory plant response rating: 10
rape; [1]
  Rape plant response rating: 1
rape; [2]
  Rape plant response rating: 2
rape; [3]
  Rape plant response rating: 2
rape; [4]
  Rape plant response rating: 0
rape; [5]
  Plant response rating, Rape: 0
rape; [6]
  Plant response rating, Rape: 2
rape; [8]
  Rape plant response rating: 5
rape; [7]
  Rape plant response rating: 3
Surinam grass; [1]
  B. signalgrass plant response rating: 0
Surinam grass; [3]
  B. signalgrass plant response rating: 0
Surinam grass; [4]
  B. signalgrass plant response rating: 0
Surinam grass; [5]
  Plant response rating, B. signalgrass: 1
Surinam grass; [6]
  Plant response rating, B. signalgrass: 1
Surinam grass; [8]
  B. signalgrass plant response rating: 5
Surinam grass; Rate 125 g/ha, Postemergence, scale 0 to 10, 0 no effect, 10 complete control
  B. signalgrass plant response rating: 0
Surinam grass; Rate 500 g/ha, Postemergence, scale of 0 to 10 where 0 is no effect and 10 is complete control
  B. signalgrass plant response rating: 2
bamyardgrass; [1]
  Barnyardgrass plant response rating: 0
bamyardgrass; Rate 125 g/ha, Postemergence section (flood test species), scale 0 to 10, 0 no effect, 10 complete control
  Barnyardgrass plant response rating: 0
bamyardgrass; [14]
  Barnyardgrass plant response rating: 0
bamyardgrass; [15]
  Plant response rating, Barnyardgrass: 0
bamyardgrass; [16]
  Barnyardgrass plant response rating: 9
bamyardgrass; [18]
  Barnyardgrass plant response rating: 0
bamyardgrass; Rate 2000 g/ha, Pre-emergence (as headed), scale 0 to 10, 0 no effect, 10 complete control
  Barnyardgrass plant response rating: 7
bamyardgrass; flood test, listed under Postemergence, Rate 250 g/ha, scale 0 to 10, 0 no effect, 10 complete control
  Barnyardgrass plant response rating: 0
